Experimental data from patent US20150315241A1, “Antibiotic Peptides” (priority 2007, published 2015).
In brackets after ≈: the same amount, converted by molar mass. Where a SMILES comes first, the peptide text is derived from it. [ ]: non-standard residue; d: D form. The star is where a group is joined. Orn(α-tetramethylguanidino) = CN(C)C(=N[C@@H](CCCN)C(=O)*)N(C)C; Hyp = O=C(O)[C@@H]1C[C@@H](O)CN1; Cha = N[C@@H](CC1CCCCC1)C(=O)O; Cit = NC(=O)NCCC[C@H](N)C(=O)O; Tle = CC(C)(C)[C@H](N)C(=O)O; Ac6c = NC1(C(=O)O)CCCCC1; Orn = NCCC[C@H](N)C(=O)O; βAla = NCCC(=O)O

Columns and labels:
E. coli BL 21 AI = test: Growth inhibition assay (MIC); format: cell-based, Escherichia coli; settings: 1% TSB, 37° C., 20 hrs
Protocol: (§1) The minimal inhibition concentrations (MIC) of the apidaecin-derived peptides and peptide-derivatives were determined by a growth inhibition assay using a serial peptide dilution in sterilized round-bottom 96-well plates (polystyrene, U-bottom, Greiner Bio-One GmbH) with a final volume of 100 μL per well. The bacteria, e.g., E. coli BL21 A1, were grown in nutrient broth (NB, Carl Roth GmbH+Co. KG, Karlsruhe, Germany) at 37° C. over night. To each well of the 96-well plate, 50 μL of the overnight culture adjusted to 5×10^6 CFU/mL in 1% TSB were added. Lyophilized peptides and peptidomimetics were dissolved in 1% TSB (tryptic soy broth) or water to give a final concentration of 250 μg/mL. Fifty μL of the peptide or peptidomimetics solution were added to the first well of a row on the plate and mixed. Fifty μL of the first well containing the peptide solution were transferred to the second well, mixed and again 50 μL transferred to the next well and so on. Thereby, a two-fold dilution series was obtained starting at 250 μg/mL in the first well down to 120 ng/mL in the 12th well of a row giving a final peptide or peptidomimetics concentration from 125 μg/mL (well 1) to 60 ng/mL (well 12). Plates were incubated at 37° C. for 20 hrs. The absorbance was measured at 595 nm using a TECAN micro plate spectrophotometer (Tecan, Germany). All peptides and peptidomimetics were measured in triplicates. Sterilized water was used as a negative control.
(§2) The bacteria strains were tested: • Eschericha coli 1103, 10233, BL 21 AI, DC 2, • Klebsiella pneumoniae 681, • Micrococcus luteus ATCC 10240, • Mycobacterium vaccae • Bactillus subtillis 347.

M. luteus ATCC 10240 = format: cell-based, Micrococcus luteus; settings: ATCC 10240, 20 h
Protocol: as §1, §2

Row | SMILES | MIC E. coli BL 21 AI (E. coli BL 21 AI) | MIC M. luteus ATCC 10240 (M. luteus ATCC 10240)
1 | CC[C@H](C)[C@H](NC(=O)[C@H](CCCNC(=N)N)NC(=O)[C@@H]1CCCN1C(=O)[C@H](Cc1c[nH]cn1)NC(=O)[C@@H]1CCCN1C(=O)[C@@H]1CCCN1C(=O)[C@H](CCCNC(=N)N)NC(=O)[C@@H]1CCCN1C(=O)[C@H](CCC(N)=O)NC(=O)[C@@H]1CCCN1C(=O)[C@@H](NC(=O)[C@H](Cc1ccc(O)cc1)NC(=O)[C@@H](NC(=O)[C@@H]1CCCN1C(=O)[C@H](CCCNC(=N)N)NC(=O)[C@H](CC(N)=O)NC(=O)[C@H](CC(N)=O)NC(=O)[C@@H](N)CCCN)C(C)C)[C@@H](C)CC)C(N)=O [compound 62] (H-[Orn]NNRPVYIPQPRPPHPRI-NH2) | 1.95 µg/mL (≈ 0.901 µM) | 7.81 µg/mL (≈ 3.61 µM)
2 | CC[C@H](C)[C@H](NC(=O)[C@H](CCCNC(=N)N)NC(=O)[C@@H]1CCCN1C(=O)[C@H](Cc1c[nH]cn1)NC(=O)[C@@H]1CCCN1C(=O)[C@@H]1CCCN1C(=O)[C@H](CCCNC(=N)N)NC(=O)[C@@H]1CCCN1C(=O)[C@H](CCC(N)=O)NC(=O)[C@@H]1CCCN1C(=O)[C@@H](NC(=O)[C@H](Cc1ccc(O)cc1)NC(=O)[C@@H](NC(=O)[C@@H]1CCCN1C(=O)[C@H](CCCNC(=N)N)NC(=O)[C@H](CC(N)=O)NC(=O)[C@H](CC(N)=O)NC(=O)[C@H](CCCN)NC(C)=O)C(C)C)[C@@H](C)CC)C(N)=O [compound 63] (Ac-[Orn]NNRPVYIPQPRPPHPRI-NH2) | 3.91 µg/mL (≈ 1.77 µM) | 3.91 µg/mL (≈ 1.77 µM)
3 | CC[C@H](C)[C@H](NC(=O)[C@H](Cc1ccc(O)cc1)NC(=O)[C@@H](NC(=O)[C@@H]1CCCN1C(=O)[C@H](CCCNC(=N)N)NC(=O)[C@H](CC(N)=O)NC(=O)[C@H](CC(N)=O)NC(=O)[C@H](CCCN)NC(C)=O)C(C)C)C(=O)N1CCC[C@H]1C(=O)N[C@@H](CCC(N)=O)C(=O)N1CCC[C@H]1C(=O)N[C@@H](CCCNC(=N)N)C(=O)N1CCC[C@H]1C(=O)N1CCC[C@H]1C(=O)N[C@@H](Cc1c[nH]cn1)C(=O)N1CCC[C@H]1C(=O)N[C@@H](CCCNC(=N)N)C(=O)N[C@H](CC(C)C)C(N)=O [compound 72] (Ac-[Orn]NNRPVYIPQPRPPHPR[dL]-NH2) | >125 µg/mL | 7.81 µg/mL (≈ 3.54 µM)
4 | CC[C@H](C)[C@H](NC(=O)[C@H](Cc1ccc(O)cc1)NC(=O)[C@@H](NC(=O)[C@@H]1CCCN1C(=O)[C@H](CCCNC(=N)N)NC(=O)[C@H](CC(N)=O)NC(=O)[C@H](CC(N)=O)NC(=O)[C@H](CCCN)NC(C)=O)C(C)C)C(=O)N1CCC[C@H]1C(=O)N[C@@H](CCC(N)=O)C(=O)N1CCC[C@H]1C(=O)N[C@@H](CCCNC(=N)N)C(=O)N1CCC[C@H]1C(=O)N1CCC[C@H]1C(=O)N[C@@H](Cc1c[nH]cn1)C(=O)N1CCC[C@H]1C(=O)N[C@@H](CCCNC(=N)N)C(=O)N[C@H](C(N)=O)C(C)(C)C [compound 73] (Ac-[Orn]NNRPVYIPQPRPPHPR[Tle]-NH2) | 62.5 µg/mL (≈ 28.3 µM) | 7.81 µg/mL (≈ 3.54 µM)
5 | CC[C@H](C)[C@H](NC(=O)[C@H](Cc1ccc(O)cc1)NC(=O)[C@@H](NC(=O)[C@@H]1CCCN1C(=O)[C@H](CCCNC(=N)N)NC(=O)[C@H](CC(N)=O)NC(=O)[C@H](CC(N)=O)NC(=O)[C@H](CCCN)NC(C)=O)C(C)C)C(=O)N1CCC[C@H]1C(=O)N[C@@H](CCC(N)=O)C(=O)N1CCC[C@H]1C(=O)N[C@@H](CCCNC(=N)N)C(=O)N1CCC[C@H]1C(=O)N1CCC[C@H]1C(=O)N[C@@H](Cc1c[nH]cn1)C(=O)N1CCC[C@H]1C(=O)N[C@@H](CCCNC(=N)N)C(=O)NCCC(N)=O [compound 74] (Ac-[Orn]NNRPVYIPQPRPPHPR[βAla]-NH2) | >125 µg/mL | 7.81 µg/mL (≈ 3.61 µM)
6 | CC[C@H](C)[C@H](NC(=O)[C@H](Cc1ccc(O)cc1)NC(=O)[C@@H](NC(=O)[C@@H]1CCCN1C(=O)[C@H](CCCNC(=N)N)NC(=O)[C@H](CC(N)=O)NC(=O)[C@H](CC(N)=O)NC(=O)[C@H](CCCN)NC(C)=O)C(C)C)C(=O)N1CCC[C@H]1C(=O)N[C@@H](CCC(N)=O)C(=O)N1CCC[C@H]1C(=O)N[C@@H](CCCNC(=N)N)C(=O)N1CCC[C@H]1C(=O)N1CCC[C@H]1C(=O)N[C@@H](Cc1c[nH]cn1)C(=O)N1CCC[C@H]1C(=O)N[C@@H](CCCNC(=N)N)C(=O)NC1(C(N)=O)CCCCC1 [compound 75] (Ac-[Orn]NNRPVYIPQPRPPHPR[Ac6c]-NH2) | >125 µg/mL | 7.81 µg/mL (≈ 3.52 µM)
7 | CC[C@H](C)[C@H](NC(=O)[C@H](Cc1ccc(O)cc1)NC(=O)[C@@H](NC(=O)[C@@H]1CCCN1C(=O)[C@H](CCCNC(=N)N)NC(=O)[C@H](CC(N)=O)NC(=O)[C@H](CC(N)=O)NC(=O)CN)C(C)C)C(=O)N1CCC[C@H]1C(=O)N[C@@H](CCC(N)=O)C(=O)N1CCC[C@H]1C(=O)N[C@@H](CCCNC(=N)N)C(=O)N1CCC[C@H]1C(=O)N1CCC[C@H]1C(=O)N[C@@H](Cc1c[nH]cn1)C(=O)N1CCC[C@H]1C(=O)N[C@@H](CCCNC(=N)N)C(=O)N[C@@H](CC1CCCCC1)C(N)=O [compound 76] (H-GNNRPVYIPQPRPPHPR[Cha]-NH2) | 62.5 µg/mL (≈ 29.1 µM) | 15.63 µg/mL (≈ 7.28 µM)
8 | CC[C@H](C)[C@H](NC(=O)[C@H](Cc1ccc(O)cc1)NC(=O)[C@@H](NC(=O)[C@@H]1CCCN1C(=O)[C@H](CCCNC(=N)N)NC(=O)[C@H](CC(N)=O)NC(=O)[C@H](CC(N)=O)NC(=O)CN)C(C)C)C(=O)N1CCC[C@H]1C(=O)N[C@@H](CCC(N)=O)C(=O)N1CCC[C@H]1C(=O)N[C@@H](CCCNC(=N)N)C(=O)N1CCC[C@H]1C(=O)N1CCC[C@H]1C(=O)N[C@@H](Cc1c[nH]cn1)C(=O)N1CCC[C@H]1C(=O)N[C@@H](CCCNC(=N)N)C(=O)N[C@H](C(N)=O)C(C)(C)C [compound 78] (H-GNNRPVYIPQPRPPHPR[Tle]-NH2) | – | 31.25 µg/mL (≈ 14.8 µM)
9 | CC[C@H](C)[C@H](NC(=O)[C@H](CCCNC(=N)N)NC(=O)[C@@H]1CCCN1C(=O)[C@H](Cc1c[nH]cn1)NC(=O)[C@@H]1CCCN1C(=O)[C@@H]1CCCN1C(=O)[C@H](CCCNC(=N)N)NC(=O)[C@@H]1C[C@@H](O)CN1C(=O)[C@H](CCCNC(=N)N)NC(=O)[C@@H]1CCCN1C(=O)[C@@H](NC(=O)[C@H](Cc1ccc(O)cc1)NC(=O)[C@@H](NC(=O)[C@@H]1CCCN1C(=O)[C@H](CCCNC(=N)N)NC(=O)[C@H](CC(N)=O)NC(=O)[C@H](CC(N)=O)NC(=O)CN)C(C)C)[C@@H](C)CC)C(N)=O [compound 90] (H-GNNRPVYIPR[Hyp]RPPHPRI-NH2) | – | 7.81 µg/mL (≈ 3.63 µM)
10 | CC[C@H](C)[C@H](NC(=O)[C@H](Cc1ccc(O)cc1)NC(=O)[C@@H](NC(=O)[C@@H]1CCCN1C(=O)[C@H](CCCNC(=N)N)NC(=O)[C@H](CC(N)=O)NC(=O)[C@H](CC(N)=O)NC(=O)[C@H](CCCN)N=C(N(C)C)N(C)C)C(C)C)C(=O)N1CCC[C@H]1C(=O)N[C@@H](CCCNC(=N)N)C(=O)N1CCC[C@H]1C(=O)N[C@@H](CCCNC(=N)N)C(=O)N1CCC[C@H]1C(=O)N1CCC[C@H]1C(=O)N[C@@H](Cc1c[nH]cn1)C(=O)N1CCC[C@H]1C(=O)N[C@@H](CCCNC(N)=O)C(=O)N[C@@H](CC(C)C)C(N)=O [compound 151] ({Orn(α-tetramethylguanidino)}-NNRPVYIPRPRPPHP[Cit]L-NH2; N-terminus and C-terminus assumed) | – | 64 µg/mL (≈ 27.9 µM)
